Laboratory results from patent publication US20090029975A1, “1,3-BENZOTHIAZINONE DERIVATIVE AND USE THEREOF” (TAKEDA PHARMACEUTICAL COMPANY LIMITED, priority 2005, published 2009).

Key:
[1] = tested on: ARE of rat glutathione S-transferase Ya subunit gene; test: Assay for ARE-dependent transcriptional activation activity (luciferase reporter pGL3-ARE in rat H9c2 cells); format: cell-based; settings: rat H9c2 cells transfected with pGL3-ARE; about 24 hours incubation with compound; compound-free group = 100%
Description: Rat H9c2 cells were suspended in Dulbecco's Modified Eagle Medium (10% FBS, D-MEM) supplemented with 5% heat-inactivated fetal calf serum to 7×10^4 cells/ml and a 18 ml aliquot was seeded on a Petri dish for cell culture, followed by incubation in 5% CO2 at 37° C. for about 16 hours. ARE ([…]; SEQ ID NO: 1) of rat glutathione S-transferase Ya subunit gene was incorporated into pGL3-Promoter Vector (manufactured by Promega Corp.) and the resulting luciferase reporter vector pGL3-ARE was transfected to the cells using FuGENE6 (Transfection reagent: manufactured by Roche), followed by additional incubation for about 7 hours. After completion of the incubation, the cells were recovered and suspended in 10% FBS-containing D-MEM to 1×10^5 cells/ml. A 100 μl aliquot was seeded on each well of a 96-well plate, followed by incubation in 5% CO2 at 37° C. for about 17 hours. Next, the cells were washed with D-MEM to remove serum, and D-MEM containing a test compound (compound obtained in EXAMPLE 2, 8, 10, 12, 22 or 23) was added to the cells, followed by incubation in 5% CO2 at 37° C. for about 24 hours. After completion of the incubation, 801 each of Steady-Glo Reagent (manufactured by Promega Corp.) was added to each well. After allowing to stand at room temperature for 40 minutes, fluorescence levels by luciferase were determined using a WALLAC ARVO SX (manufactured by Perkin-Elmer). Taking the emitted luminescence of test compound-free group as 100%, the ARE-dependent transcriptional activation was shown in terms of the concentration of test compound, which caused to emit the luminescence of 200% (EC200: μM).

[2] = target: T1, human PPARα (Homo sapiens, UniProt Q07869); test: PPARα assay: PPRE-dependent transcriptional activation activity (luciferase reporter in COS-1 cells transfected with PPARα and RXRα); format: cell-based; settings: COS-1 cells transfected with PPARα and RXRα expression vectors and pGL3-PPRE4-Tk; about 42 hours incubation with compound; compound-free group = 100%
T1 construct: expressed in transfected cells; host or cells: COS-1 cells
T1 sequence (Q07869 1-468): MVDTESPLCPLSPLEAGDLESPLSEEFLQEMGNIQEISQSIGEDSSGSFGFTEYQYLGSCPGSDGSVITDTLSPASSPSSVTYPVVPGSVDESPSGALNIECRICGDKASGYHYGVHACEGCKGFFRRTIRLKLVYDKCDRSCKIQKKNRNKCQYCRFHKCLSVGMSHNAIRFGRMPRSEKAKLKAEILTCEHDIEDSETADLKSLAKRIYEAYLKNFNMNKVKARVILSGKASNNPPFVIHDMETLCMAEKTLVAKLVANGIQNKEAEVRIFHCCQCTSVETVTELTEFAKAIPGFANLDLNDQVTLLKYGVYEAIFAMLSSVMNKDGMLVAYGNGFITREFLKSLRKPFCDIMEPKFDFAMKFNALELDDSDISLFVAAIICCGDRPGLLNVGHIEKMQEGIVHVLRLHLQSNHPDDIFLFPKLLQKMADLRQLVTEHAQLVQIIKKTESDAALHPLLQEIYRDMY
T1 sequence (P19793 1-462 partner): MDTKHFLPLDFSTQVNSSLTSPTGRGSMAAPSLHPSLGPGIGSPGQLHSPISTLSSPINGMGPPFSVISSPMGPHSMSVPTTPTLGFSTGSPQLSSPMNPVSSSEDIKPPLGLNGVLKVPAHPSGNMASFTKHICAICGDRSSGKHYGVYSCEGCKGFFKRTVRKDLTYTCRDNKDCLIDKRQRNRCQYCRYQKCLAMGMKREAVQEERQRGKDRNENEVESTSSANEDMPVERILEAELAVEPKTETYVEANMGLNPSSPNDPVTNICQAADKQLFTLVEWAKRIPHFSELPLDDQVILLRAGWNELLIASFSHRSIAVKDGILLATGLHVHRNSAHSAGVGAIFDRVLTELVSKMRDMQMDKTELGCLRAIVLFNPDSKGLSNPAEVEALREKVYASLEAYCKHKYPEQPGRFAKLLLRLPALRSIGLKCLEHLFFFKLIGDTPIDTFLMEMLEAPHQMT
Description: COS-1 cells were suspended in Dulbecco's Modified Eagle Medium (10% FBS, D-MEM) supplemented with 10% heat-inactivated fetal calf serum to 1×10^5 cells/ml and a 25 ml aliquot was seeded on a 75 cm^2 cell culture flask, followed by incubation in 5% CO2 at 37° C. for about 15 hours. PPARα expression vector pMCMV-neo-rPPARα and RXRα expression vector pMCMV-neo-rRXRα, in which human PPARα gene and human RXRα gene were inserted into pMCMV-neo (manufactured by Promega Corp.) respectively, and Luciferase reporter vector pGL3-PPRE4-Tk, in which four PPREs (aggacaaaggtca; SEQ ID NO: 2) were inserted into pGL3-Promoter Vector (manufactured by Promega Corp.) in tandem, were transfected to the cells using FuGENE6 (Transfection reagent: manufactured by Roche), and then incubation for about 24 hours. After completion of the incubation, the cells were recovered and suspended in 0.1% bovine serum albumin (Sigma)-containing D-MEM to 5×10^4 cells/ml. A 100 μl aliquot was seeded on each well of a 96-well plate, followed by incubation in 5% CO2 at 37° C. for about 4 hours. Next, D-MEM containing a test compound (compound obtained in EXAMPLE 2, 8, 10 or 12) was added thereto, followed by incubation in 5% CO2 at 37° C. for about 42 hours. After completion of the incubation, a 801 aliquot was added to each well of Steady-Glo Reagent (manufactured by Promega Corp.). After allowing to stand for 30 minutes at room temperature, fluorescence levels by luciferase were determined using a WALLAC ARVO SX (manufactured by Perkin-Elmer). Taking the emitted luminescence of test compound-free group as 100%, the PPRE-dependent transcriptional activation was shown in terms of the concentration of test compound, which caused to emit the luminescence of 200% (EC200: μM).

| melting point | EC200 (concentration of test compound causing luminescence of 200% of the test compound-free group), PPRE-dependent transcriptional activation [2] | SMILES | EC200 (concentration of test compound causing luminescence of 200% of the test compound-free group), ARE-dependent transcriptional activation [1] |
| --- | --- | --- | --- |
|  |  | CCN(CC)C(=O)COC(=O)CCc1cc(S(C)(=O)=O)cc(-c2nc(=O)c3ccc(Cl)cc3s2)n1 [EXAMPLE 23, 2-(Diethylamino)-2-oxoethyl 3-[6-(7-chloro-4-oxo-4H-1,3-benzothiazin-2-yl)-4-(methylsulfonyl)pyridin-2-yl]propanoate] | 0.6 µM |
| 203.4 to 203.6 °C |  | COC(=O)CCc1cc(S(C)(=O)=O)cc(-c2nc(=O)c3ccc(Cl)cc3s2)n1 [EXAMPLE 17, Methyl 3-[6-(7-chloro-4-oxo-4H-1,3-benzothiazin-2-yl)-4-(methylsulfonyl)pyridin-2-yl]propanoate] |  |
| 240 to 240.2 °C |  | CCOC(=O)CCc1cc(S(C)(=O)=O)cc(-c2nc(=O)c3ccc(Cl)cc3s2)n1 [EXAMPLE 13, Ethyl 3-[6-(7-chloro-4-oxo-4H-1,3-benzothiazin-2-yl)-4-(methylsulfonyl)pyridin-2-yl]propanoate] |  |
| 178 to 178.4 °C |  | Cc1ccc2c(=O)nc(-c3cc(S(C)(=O)=O)cc(CCC(=O)OC(C)(C)C)n3)sc2c1 [compound 11, Tert-butyl 3-[6-(7-methyl-4-oxo-4H-1,3-benzothiazin-2-yl)-4-(methylsulfonyl)pyridin-2-yl]propanoate] |  |
| 177.6 to 178 °C |  | CC(C)(C)OC(=O)CCc1cc(S(C)(=O)=O)cc(-c2nc(=O)c3ccc(F)cc3s2)n1 [compound 9, Tert-butyl 3-[6-(7-fluoro-4-oxo-4H-1,3-benzothiazin-2-yl)-4-(methylsulfonyl)pyridin-2-yl]propanoate] |  |
| 183.1 to 183.2 °C |  | Cc1oc(=O)oc1COC(=O)CCc1cc(S(C)(=O)=O)cc(-c2nc(=O)c3ccc(Cl)cc3s2)n1 [compound 20, (5-Methyl-2-oxo-1,3-dioxolen-4-yl)methyl 3-[6-(7-chloro-4-oxo-4H-1,3-benzothiazin-2-yl)-4-(methylsulfonyl)pyridin-2-yl]propanoate] |  |
| 235.4 to 235.5 °C |  | CCCOC(=O)CCc1cc(S(C)(=O)=O)cc(-c2nc(=O)c3ccc(Cl)cc3s2)n1 [compound 19, Propyl 3-[6-(7-chloro-4-oxo-4H-1,3-benzothiazin-2-yl)-4-(methylsulfonyl)pyridin-2-yl]propanoate] |  |
|  | >100 µM | CS(=O)(=O)c1cc(CCC(=O)O)nc(-c2nc(=O)c3ccccc3s2)c1 [EXAMPLE 2, 3-[6-(4-Oxo-4H-1,3-benzothiazin-2-yl)-4-(methylsulfonyl)pyridin-2-yl]propanoic acid] | 1.3 µM |
| 235.8 to 236.2 °C | >100 µM | CS(=O)(=O)c1cc(CCC(=O)O)nc(-c2nc(=O)c3ccc(F)cc3s2)c1 [EXAMPLE 10, 3-[6-(7-fluoro-4-oxo-4H-1,3-benzothiazin-2-yl)-4-(methylsulfonyl)pyridin-2-yl]propanoic acid] | 1.7 µM |
| 184.3 to 184.5 °C |  | CC(C)(C)OC(=O)CCc1cc(S(C)(=O)=O)cc(-c2nc(=O)c3ccc(Cl)cc3s2)n1 [compound 7, Tert-butyl 3-[6-(7-chloro-4-oxo-4H-1,3-benzothiazin-2-yl)-4-(methylsulfonyl)pyridin-2-yl]propanoate] |  |
| 150.5 to 151.5 °C |  | CCN(CC)CCOC(=O)CCc1cc(S(C)(=O)=O)cc(-c2nc(=O)c3ccc(Cl)cc3s2)n1 [EXAMPLE 22, 2-(Diethylamino)ethyl 3-[6-(7-chloro-4-oxo-4H-1,3-benzothiazin-2-yl)-4-(methylsulfonyl)pyridin-2-yl]propanoate] | 0.61 µM |
| 228.8 to 228.9 °C | >100 µM | CS(=O)(=O)c1cc(CCC(=O)O)nc(-c2nc(=O)c3ccc(Cl)cc3s2)c1 [EXAMPLE 8, 3-[6-(7-Chloro-4-oxo-4H-1,3-benzothiazin-2-yl)-4-(methylsulfonyl)pyridin-2-yl]propanoic acid] | 0.94 µM |
| 240 to 241 °C |  | CS(=O)(=O)c1cc(CCC(=O)OCC(O)CO)nc(-c2nc(=O)c3ccc(Cl)cc3s2)c1 (stereo not shown) [compound 21, 2,3-Dihydroxypropyl 3-[6-(7-chloro-4-oxo-4H-1,3-benzothiazin-2-yl)-4-(methylsulfonyl)pyridin-2-yl]propanoate] |  |
| 238.9 to 239.1 °C | >100 µM | Cc1ccc2c(=O)nc(-c3cc(S(C)(=O)=O)cc(CCC(=O)O)n3)sc2c1 [EXAMPLE 12, 3-[6-(7-Methyl-4-oxo-4H-1,3-benzothiazin-2-yl)-4-(methylsulfonyl)pyridin-2-yl]propanoic acid] | 1.6 µM |
